Laboratory results taken from patent US5468633A, “Human endothelin converting enzyme obtained from blood or placenta” (Nisshin Flour Milling Co., Ltd., priority 1993, dated 1995).

System: endothelin converting enzyme
Assay: Effects of various inhibitors on the activity of converting big endothelin-1 to endothelin-1 (residual enzymatic activity)
Type: biochemical, human
Details: 37° C., 30 minutes preincubation, pH 7.0, untreated enzyme = 100
Experimental: 15 μl of a 20 nmol/ml big endothelin-1 solution was added to 0.3 ml of an enzyme solution (10 mM tris-hydrochloric acid-0.15M sodium chloride buffer; pH 7.0), and the mixture was reacted at 37° C. for 6 hours. After completion of the reaction, 6 μl of a 0.1M EDTA solution was added to terminate the reaction.
Subsequently, the resultant endothelin-1 was assayed according to a sandwich enzyme immunoassay (EIA) method. An enzymatic activity of converting 1 pmol of big endothelin-1 to endothelin-1 per hour under the above-described reaction conditions is termed 1 U (unit).
A sample and an endothelin standard solution of a predetermined concentration were respectively applied to a 96-hole microplate on which anti-endothelin monoclonal antibody had been immobilized to thereby cause the reaction. After washing the microplate, peroxidase-labeled anti-endothelin polyclonal antibody was added to thereby cause the reaction. After washing the microplate, activity of bound peroxidase was assayed. Endothelin-1 in the sample was assayed based on the calibration curve drawn by using endothelin standard solutions having a predetermined concentration of endothelin.
The enzyme of the invention was tested for the effects of various inhibitors against the activity of converting big endothelin-1 to endothelin-1.
The enzyme was incubated in 0.3 ml of a reaction solution (10 mM tris-hydrochloric acid-0.15M sodium chloride buffer; pH 7.0) containing various inhibitors at 37° C. for 30 minutes, and the residual enzymatic activity was measured in the above-described manner. Residual activities in the presence of various inhibitors are shown in Table 1 as relative activity taking the activity of untreated enzyme as 100.

Row | SMILES | Relative Activity (%) (inhibitor 0.1 mM) | further results
1 | O=S(=O)(F)Cc1ccccc1 [Phenylmethanesulfonyl fluoride] |  | Relative Activity (%) (inhibitor 1 mM): 7%
2 | O=C(O)CNC(=O)C(CS)Cc1ccccc1 (stereo not shown) [Thiorphan] | 0% | 
3 | CC(C)C[C@H](NP(=O)(O)O[C@@H]1O[C@@H](C)[C@H](O)[C@@H](O)[C@H]1O)C(=O)N[C@@H](Cc1c[nH]c2ccccc12)C(=O)O [Phosphoramidon] | 0% | 
4 | CC(C)C[C@H](NC(=O)[C@@H](NC(=O)N[C@@H](Cc1ccccc1)C(=O)O)[C@@H]1CCN=C(N)N1)C(=O)N[C@H](C=O)Cc1ccccc1 [Chymostatin] |  | Relative Activity (%) (inhibitor 0.01 mM): 20%
